# In US12691100B2, “NMT inhibitor treatment of a senescence-associated disease or disorder of the liver” (Imperial College Innovations Limited, priority 2020, dated 2026):
# Columns and labels:
# [1] = Blood markers (Vetscan) in a separate cohort of old mice; type: in vivo, female C57/BL6 mice; conditions: ~19 mo females, before 4th round, Compound 2 10 mg/kg, Compound 3 25 mg/kg, versus vehicle
# Procedure: Blood was collected prior to each round of injection for physiological assessments. Mice were allowed to rest 4 weeks prior to being culled and organs collected for freezing in OCT, paraffin embedding and snap-freezing for RNA extraction.
# (§1) For analysis of immune cell composition in whole blood, tail-vein blood was collected 2 days after last treatment. Whole blood was diluted in saline to a volume of […] and ran on a Sysmex XE2100 automated cell counter. Blood glucose levels were determined by collecting whole-blood from tail vein into heparinised tubes (Abraxis), 120-140 μL of whole-blood to be loaded onto a comprehensive diagnostic profile reagent rotor (Abraxis) and run on a VetScan VS2 Chemistry Analyzer (Abraxis: 500-7123).
# Further experiments were performed on a separate cohort of old mice. […] This regimen was repeated 4 more times and blood was collected for Vetscan measurements prior to the 4th round of treatment (FIG. 19). At that stage, ~19 mo females presented elevated levels of ALT, amylase and glucose in blood when compared with young mice (FIG. 20A).
# [2] = Liver lipids (Oil Red O) and blood glucose in the same cohort of old mice; type: in vivo, C57BL/6J female mice; conditions: 10 mg/kg i.p.
# Procedure: as §1
# (§2) Oil Red O staining for lipids was carried out on liver tissue in OCT was snap-frozen in liquid N2 and cryosectioned (15 μM). Sections were equilibrated to RT for 10 min and then stained with 0.5% Oil Red O solution (w/v, in isopropanol, Sigma, O1391) for 5 min, rinsed in tap water and counterstained with Mayer's hematoxylin for 30 s. Then sections were again rinsed in tap water for 30 min and coverslips mounted. Images were acquired on Zeiss AxioScan Z.1 and ImageJ quantification of Oil-red stain area relative to background tissue area performed for 3 fields per section.
# To understand what effects are associated with the treatment with NMT inhibitors in vivo, we analysed different parameters in the same cohort of old mice described in FIG. 17A. First, we looked into the accumulation of lipid droplets in the liver using Oil Red O staining. These are an indication of hepatic steatosis, and importantly, elimination of senescent cells has been previously shown capable to reduce steatosis.
# Other pathological change observed in old mice is the presence of increased levels of glucose in blood. This can be related with diabetes or metabolic disease. Importantly, both pathologies have been associated with the presence of senescent cells.
# [3] = High fat diet model of nonalcoholic steatohepatitis (NASH); type: in vivo, male C57/BL6 mice; conditions: HFD mice, 10 mg/kg
# Description: For high-fat diet experiments C57BL/6J male mice aged 8-weeks old were placed on Chow or high-fat diet (kcal 40% fat (non-trans-fat Primex Shortening), kcal 20% fructose, 2% cholesterol, D1602230i) for 4 weeks prior to first round of injections. […] Blood was collected prior to each round of injection for physiological assessments. Mice were allowed to rest 4 weeks prior to being culled and organs collected for freezing in OCT, paraffin embedding, blood collection for physiological measurements and tissue snap-freezing for RNA extraction.
# as §1
# Immunohistochemical staining—Slides were deparaffinised by washing slides twice in Histoclear™ for 5 min each, followed by 5 min washes in decreasing concentrations of ethanol with 100%, 75%, 50% & 25% ethanol washes before a final wash 5 min in dH2O. Heat induced epitope retrieval (HIER) was then performed in pressure cooker for 20 min using either antigen-unmasking solution, Citrate-based at pH 6.0 (VectorLab H-3300-250) or antigen-unmasking solution, Tris-based at pH 9.0 (VectorLab H-3301-250) depending on antibody manufacturers' instructions. Following HIER, slides were cooled on ice for 10 min and then washed in PBS for 5 min. For intracellular stains, sections were permeabilized with 0.2% Triton X-100 in PBS for 10 min and washed twice in PBS for 5 min. For NRAS staining in liver slides were washed in 0.1% H2O2 in PBS for 15 min followed by washing twice in PBS to reduce endogenous peroxide activity. Sections were marked using hydrophobic pen and Non-specific antigen binding was blocked by incubating slides with CAS-Block™ Histochemical reagent (ThermoFisher, 008120) for 30-45 min in a humidified chamber. Slides were then incubated with primary antibody overnight in a humidified chamber at 4° C. For experiments utilising p21 antibody, slides were incubated with primary p21 antibody (p21 [EPR18021], Abcam, 1:200) overnight in a humidified chamber at 4° C. Slides were washed twice in PBS for 5 min and incubated with secondary antibody SignalStain® Boost IHC detection reagent Mouse/Rabbit, HRP (Cell Signalling Technology, 8125) for 30-45 min. Next, slides were washed twice in PBS for 5 min and incubated for 2-10 min with SignalStain® DAB substrate kit (CST, 8059) to detect HRP signal. Signal development was stopped when visible positive cells could be detected on a microscope, by washing slides in dH2O. To counterstain DAB signal, slides were incubated for 30 s in Modified Mayer's Hematoxylin (Lillie's Modification) (DAKO), washed in dH2O, and incubated for 30 s in 0.05% Ammonium solution (PBS) followed by washing in dH2O. Prior to mounting coverslips with VectaMount aqueous mounting media (VectorLab, H-5501-60) slides were dehydrated by washing 1 min in 75% Ethanol, 5 min in 100% Ethanol and 5 min in Histoclear®.
# as §2, with “section. […]” for “section.”
smiles,measurement,setting,value
Cc1c(NS(=O)(=O)c2c(Cl)cc(-c3ccnc(N4CCNCC4)c3)cc2Cl)c(CC(C)C)nn1C [Compound 2],ALT in blood,[1]; FIG. 20A,lower level
same,Amylase in blood,[1]; FIG. 20B,lower level
same,Glucose in blood,[1]; FIG. 20C,lower level
same,"Glucose in blood, fasted mice","[2]; old mice fasted, FIG. 18C",lower levels of glucose
same,"Glucose in blood, fed mice","[2]; old mice kept fed, FIG. 18B",lower levels of glucose
same,Accumulation of lipids in the liver (Oil Red O staining),"[2]; ~26 month female mice, FIG. 18A",reduced accumulation of lipids in the liver
same,Liver fibrosis (Sirius red staining),[3]; FIG. 23,normalized
same,p21^CIP1-positive hepatocytes in the liver,[3]; FIG. 24A,reduction of p21^CIP1-positive hepatocytes
same,Lipid accumulation (steatosis) in liver,[3]; FIG. 24D,reduction in this lipid accumulation
same,Transcriptional signatures of collagen formation in liver,"[3]; GSEA, FIG. 24E",downregulation
same,Transcriptional signature of Fridman senescence in liver,"[3]; GSEA, FIGS. 24B-C",downregulation
same,Transcriptional signature of senescence-associated secretory phenotype in liver,"[3]; GSEA, FIGS. 24B-C",downregulation
same,Col1a1 mRNA in liver,"[3]; RT-qPCR, FIGS. 24F-G",lower
same,Col4a1 mRNA in liver,"[3]; RT-qPCR, FIGS. 24F-G",lower
same,ALP in blood,"[3]; before 3rd round, FIGS. 22B-D",normalised
same,ALT in blood,"[3]; before 3rd round, FIGS. 22B-D",normalised
same,Albumin in blood,"[3]; before 3rd round, FIGS. 22B-D",normalised
same,suPAR in blood,"[3]; before 3rd round, versus vehicle, FIG. 22A",lower levels of suPAR
